From patent publication US9856273B2, “ETP derivatives” (priority 2012, dated 2018)

Key:
[1] = test system: BxPC3 pancreatic cancer cell line; assay: MTS assay; assay type: cell-based
Experimental: (§1) MTS Assay: Panc1, BxPC3, or SU.86.86 cells were seeded in a 96-well plate at a density of 7500 cells/well prior to treatment with increasing amounts of ETP69 or DMSO vehicle control. Forty-eight hours post treatment cells were incubated with the MTS substrate (CellTiter 96 AQueous One Solution Cell Proliferation Assay, Promega, Madison, Wis.) according to the manufacturer's instructions. The absorbance was measured at 490 nm using a 96-well plate reader (Synergy 4, Biotek), and the data were normalized to the absorbance of DMSO-treated cells. IC50 values were determined using GraphPad Prism's non-linear regression function. See FIGS. 11, 21, 22A, 22B, 23, 24A, 24B, 24C, 25A and 25B.

[2] = test system: Su.86.86 pancreatic cancer cell line; assay: MTS assay; assay type: cell-based
Experimental: as §1

[3] = test system: Panc1 pancreatic cancer cell line; assay: MTS assay; assay type: cell-based; conditions: Homo sapiens, PANC-1; Panc1, 48 h
Experimental: as §1

p53 tumor suppressor = assay: Western blot, induction of p53; assay type: cell-based, human; conditions: A2058, DU145, A549 and SKOV3 cells (SKOV3 cells do not express p53 protein)
Experimental: Induction of p16, p53, p21waf1 and p27 (FIGS. 8 and 9): Western blot analyses were performed with specific antibodies. Briefly, human A2058 melanoma, DU145 prostate, A549 non-small lung and SKOV3 ovarian cancer cells were treated with ETP69. Whole-cell lysates (40 […]g) were resolved by SDS-PAGE. Primary specific antibodies to p53, p21^WAF1, p27(Kip1), p16 and Actin were diluted in PBS (pH 7.5) with 5% (w/v) nonfat milk and 0.1% (v/v) Tween-20 over night at 4° C. Horseradish peroxidase-conjugated secondary antibodies were incubated in PBS (pH 7.5) with 5% (w/v) nonfat milk and 0.1% (v/v) Tween-20 for 1 h at room temperature. Positive immuno-reactive proteins were detected using the ECL system (Pierce, Rockford, Ill.).

[4] = test system: A549 lung cancer SQ xenografts; assay type: in vivo, mouse; conditions: A549 xenograft, 10 mg/kg orally once daily for 31 days
Experimental: Human A549 non-small lung cancer cells (5×10^6) were resuspended in serum-free DMEM medium and Matrigel (ration of 1:1) and subcutaneously injected into the flank of 5-6 weeks old female NOD/SCID/IL-2rg(ko)(NSG). When palpable tumor sizes reached at approximately 50 mm^3, mice were divided into two groups (vehicle=10, treatment=10). Then, ETP69 was orally administered at 10 mg/kg with vehicle (10% DMSO+30% Solutol+60% saline), once daily for 31 days. Tumor volumes were calculated by the formula 1/2a×b^2, where a is the long diameter, and b is the short diameter. Tumor volumes correlate with tumor weights. The statistical significance of group differences was analyzed using a Student's t-test with the two-tailed distribution. P values less than 0.05 were considered statistically significant.

[5] = test system: Huh-7 hepatocellular carcinoma cells; assay: MTS cell viability assay; assay type: cell-based; conditions: Homo sapiens
Experimental: (§2) IC50 Determinations for Ovarian, Liver, Pancreatic, CML, AML Cancer Cell Lines (See e.g. FIGS. 4, 6A-6C, 21, 22A, 22B, 23, 24A-24C, 25A, 25B and 34): MTS assays were performed for cell viability. SKOV3 ovarian cancer, Huh-7 hepatocellular carcinoma, MIA-PaCa2 pancreatic cancer, KCL-22 CML, T315I mutant KCL-22 CML, MOLM-13 AML and MV4-11 AML cells were seeded in 96-well plates (5000 cells/well for solid tumors, 10000 cells/well for blood tumors), incubated overnight at 37° C. in 5% CO2, and exposed to racemic ETP69 or S enantiomer in a dose-dependent manner for 48 h. Dimethyl sulfoxide (DMSO) was used as the vehicle control. Viable cell numbers were determined by tetrazolium conversion to its formazan dye and absorbance was measured at 490 nm using an automated ELISA plate reader. Each experiment was performed in quadruplicate.

KCL-22 CML cells = assay: MTS cell viability assay; assay type: cell-based; conditions: Homo sapiens
Experimental: as §2

MV4-11 AML cells = assay: MTS cell viability assay; assay type: cell-based; conditions: Homo sapiens
Experimental: as §2

[6] = test system: T315I mutant KCL-22 CML cells; assay: MTS cell viability assay; assay type: cell-based; conditions: Homo sapiens
Experimental: as §2

[7] = test system: normal pancreatic epithelial cells; assay: Viability of normal pancreatic epithelial cells; conditions: 100 nM to 1000 nM

CN1C(=O)[C@@]23C[C@](C)(C#N)[C@H](c4ccc5c(c4)OCO5)N2C(=O)[C@]1(C)SS3 (racemic) [ETP69, Rac-(3S,6S,7S,8aS)-6-(Benzo[d][1,3]dioxol-5-yl)-2,3,7-trimethyl-1,4-dioxohexahydro-6H-3,8a-epidithiopyrrolo[1,2-a]pyrazine-7-carbonitrile]
killing of cells ([1]; BxPC3, 100 nM to 1000 nM): significant killing | IC50 ([1]; Homo sapiens, BXPC-3, BxPC3, 48 h): 210 nM | IC50 ([2]; Homo sapiens, SU.86.86, 48 h): 86 nM | killing of cells ([2]; SU86.86, 100 nM to 1000 nM): significant killing | IC50 [3]: 824 nM | induction of p53 (p53 tumor suppressor): induces | toxicity symptoms [4]: no observable toxicity symptoms | tumor volume [4]: decreased | tumor weight [4]: decreased | IC50 [5]: 3.3 nM | IC50 (KCL-22 CML cells): 180 nM | IC50 (MV4-11 AML cells): 1.8 nM | IC50 [6]: 170 nM | destruction of normal pancreatic cells [7]: little destruction
